# Patent US20120204273A1, “COMPOSITIONS RELATING TO A PHOSPHOPROTEIN AND METHODS OF USE” (SANFORD-BURNHAM MEDICAL RESEARCH INSTITUTE, priority 2010, published 2012)
# Tests used:
# HA-CDP138 = assay: Phosphorylation of HA-CDP138 in CHO-T cells (anti-HA IP, PAS antibody blot); type: cell-based, hamster; conditions: insulin 100 nM, 15 min
# Description: FIG. 1, panels A-D, show an uncharacterized C2 domain-containing protein encoded by 5730419I09Rik is a novel phosphoprotein identified in insulin-stimulated adipocytes using a SILAC phosphoproteomic approach. (A): Schematic procedure for SILAC quantitative proteomics used for identification and quantification of peptide from CDP138 (5730419I09Rik). Top right panel: quantification of CDP138 peptide from different groups of adipocytes. Lower right panel: Schematic diagram of CDP138 and the identified phosphorylation sites. (B): Confirmation of CDP138 phosphorylation induced by insulin. CHO-T cells expressing HA-CDP138, or differentiated 3T3-L1 adipocytes were treated with or without insulin (100 nM) for 15 min. A third sample was pretreated with wortmannin (100 nM, WM) for 20 min or LY294002 (50 μM, LY) for 1 hour before insulin stimulation. […] CDP138, pS473-Akt and Akt protein were also detected with total cell lysates. […] Whole cell extracts (25 μg total protein) from different tissues (lean mice, left panel) and epididymal fat pads from both ob/ob and lean mice (24 weeks old, Jackson Lab, Bar Harbor, Me.; middle panel) were analyzed by immunoblotting with antibodies against CDP138, IRS-1, Akt, Erk1/2, and β-actin. Right panel: quantification of CDP138 protein levels in fat tissues from lean and obese mice. […]
# 3T3-L1 adipocytes = assay: Endogenous GLUT4 accumulation in the TIRF zone (fixed adipocytes); type: cell-based, mouse; conditions: 100 nM insulin; scrambled siRNA
# Description: FIG. 2, panels A-C show knockdown of CDP138 in 3T3-L1 adipocytes inhibits insulin-stimulated glucose transport (A) and myc-GLUT4-GFP translocation (B), but not endogenous GLUT4 movement to the periphery detected in TIRF zone (C). (A): Differentiated adipocytes at day 5 were transfected with siRNAs against mouse 5730419I09Rik or the scrambled siRNA (Scr) as described earlier (Jiang et al., 2003) for 60 hrs, then serum starved overnight. Cells were then treated with or without insulin (1 nM and 100 nM) for 30 min for the glucose uptake assay, or 15 min for immunoblotting of CDP138, pAkt, Akt and β-actin. […] Cell surface Myc-GLUT4-GFP was detected with anti-myc monoclonal Ab (9E10) and Alexa Fluor 568-labeled goat anti-mouse IgG in non-permeablized cells. The Myc signal and GFP signal were quantified as previously described (Jiang et al., 2002). […] GLUT4 was detected with a goat anti-GLUT4 Ab and Alexa Fluor 488-conjugated donkey anti-goat Ab in permeabilized cells. […] We also quantified endogenous GLUT4 redistribution to the PM using total internal reflection fluorescence microscopy (TIRFM) with a setting of about 100 nm distance from the coverslip (FIG. 2C, top panel). For this experiment, endogenous GLUT4 was detected by immunofluorescent staining with a goat anti-GLUT4 Ab that recognizes the cytoplasmic C-terminus of GLUT4. […]
substance,measurement,setting,value
insulin,phosphorylation of HA-tagged CDP138 detected with PAS antibodies,HA-CDP138,stimulates phosphorylation
same,enhancement of GLUT4 signal in the TIRF zone,3T3-L1 adipocytes,about 2.5 fold
